Results on three compounds are retold here after patent US8999404B2, “Phaleria macrocarpa extract, extraction process and its use as cholesteryl ester transferase protein (CETP) inhibitor” (Pt. Dexa Medica, priority 2011, dated 2015).

Data set [1] concerns CETP gene expression. The experiment in a line: Combination effect of double unsaturated fatty acid and DLBS1449 on CETP gene expression. The data set is classed as cell-based, human. The settings on record: HepG2, 30 μM fatty acid alone, 24 hours, FIG. 8. The procedure:
HepG2 cells were cultured at 6-well plate until 60% of cell density was reached. Change of medium was then performed, using serum-free medium and incubated for 24 hours. Those cells were then treated with 4 different treatments which were 30 μM of arachidonic acid, 30 μM of linoleic acid, combination of arachidonic acid with 75 μg/ml of DLBS1449 and combination of linoleic acid with 75 μg/ml of DLBS1449. These treatments were performed for 24 hours. Total RNA of HepG2 cells treated with DLBS1449 were isolated using Trizol solution according to the procedure available from the solution. Total RNA were then measured using NanoDrop machine and visualized using electrophoresis method. Further, RNA with good quality will be used to synthesize cDNA through RT-PCR process using PCR Thermocycler machine in a certain condition that has been optimized.

The conditions of data set [2]: clinical trials, patients consuming the drug; cited from earlier work.

“Also recorded” adds a separate entry of the source.

Turning to `CCCCC/C=C\C/C=C\C/C=C\C/C=C\CCCC(=O)O` [arachidonic acid], the CETP gene expression result in data set [1] is reported as “decrease the CETP gene expression”. Take `CCCCC/C=C\C/C=C\CCCCCCCC(=O)O` [linoleic acid]: in data set [1], the CETP gene expression entry is “greater decrease”. On to `CCOC(=O)N1c2ccc(C(F)(F)F)cc2[C@@H](N(Cc2cc(C(F)(F)F)cc(C(F)(F)F)c2)C(=O)OC)C[C@H]1CC` [torcetrapib], for which the “patients' blood pressure” value in data set [2] is “increase of blood pressure; also recorded: increase in patients' blood pressure”.
